# According to patent US20220127232A1, “HISTONE ACETYLTRANSFERASE MODULATORS AND COMPOSITIONS AND USES THEREOF” (The Trustees of Columbia University in the City of New York, priority 2019, published 2022):
# Entries after “also recorded” stand apart in the source; their conditions may differ.
# Legend:
# [1] = target: p300 (Homo sapiens, UniProt Q09472); test: Histone Acetyltransferase (HAT) in vitro acetylation assay, western blot of H3K27ac / H3K18ac; format: biochemical; conditions: compound in DMSO
# Sequence of p300 (Q09472 whole entry, species assumed): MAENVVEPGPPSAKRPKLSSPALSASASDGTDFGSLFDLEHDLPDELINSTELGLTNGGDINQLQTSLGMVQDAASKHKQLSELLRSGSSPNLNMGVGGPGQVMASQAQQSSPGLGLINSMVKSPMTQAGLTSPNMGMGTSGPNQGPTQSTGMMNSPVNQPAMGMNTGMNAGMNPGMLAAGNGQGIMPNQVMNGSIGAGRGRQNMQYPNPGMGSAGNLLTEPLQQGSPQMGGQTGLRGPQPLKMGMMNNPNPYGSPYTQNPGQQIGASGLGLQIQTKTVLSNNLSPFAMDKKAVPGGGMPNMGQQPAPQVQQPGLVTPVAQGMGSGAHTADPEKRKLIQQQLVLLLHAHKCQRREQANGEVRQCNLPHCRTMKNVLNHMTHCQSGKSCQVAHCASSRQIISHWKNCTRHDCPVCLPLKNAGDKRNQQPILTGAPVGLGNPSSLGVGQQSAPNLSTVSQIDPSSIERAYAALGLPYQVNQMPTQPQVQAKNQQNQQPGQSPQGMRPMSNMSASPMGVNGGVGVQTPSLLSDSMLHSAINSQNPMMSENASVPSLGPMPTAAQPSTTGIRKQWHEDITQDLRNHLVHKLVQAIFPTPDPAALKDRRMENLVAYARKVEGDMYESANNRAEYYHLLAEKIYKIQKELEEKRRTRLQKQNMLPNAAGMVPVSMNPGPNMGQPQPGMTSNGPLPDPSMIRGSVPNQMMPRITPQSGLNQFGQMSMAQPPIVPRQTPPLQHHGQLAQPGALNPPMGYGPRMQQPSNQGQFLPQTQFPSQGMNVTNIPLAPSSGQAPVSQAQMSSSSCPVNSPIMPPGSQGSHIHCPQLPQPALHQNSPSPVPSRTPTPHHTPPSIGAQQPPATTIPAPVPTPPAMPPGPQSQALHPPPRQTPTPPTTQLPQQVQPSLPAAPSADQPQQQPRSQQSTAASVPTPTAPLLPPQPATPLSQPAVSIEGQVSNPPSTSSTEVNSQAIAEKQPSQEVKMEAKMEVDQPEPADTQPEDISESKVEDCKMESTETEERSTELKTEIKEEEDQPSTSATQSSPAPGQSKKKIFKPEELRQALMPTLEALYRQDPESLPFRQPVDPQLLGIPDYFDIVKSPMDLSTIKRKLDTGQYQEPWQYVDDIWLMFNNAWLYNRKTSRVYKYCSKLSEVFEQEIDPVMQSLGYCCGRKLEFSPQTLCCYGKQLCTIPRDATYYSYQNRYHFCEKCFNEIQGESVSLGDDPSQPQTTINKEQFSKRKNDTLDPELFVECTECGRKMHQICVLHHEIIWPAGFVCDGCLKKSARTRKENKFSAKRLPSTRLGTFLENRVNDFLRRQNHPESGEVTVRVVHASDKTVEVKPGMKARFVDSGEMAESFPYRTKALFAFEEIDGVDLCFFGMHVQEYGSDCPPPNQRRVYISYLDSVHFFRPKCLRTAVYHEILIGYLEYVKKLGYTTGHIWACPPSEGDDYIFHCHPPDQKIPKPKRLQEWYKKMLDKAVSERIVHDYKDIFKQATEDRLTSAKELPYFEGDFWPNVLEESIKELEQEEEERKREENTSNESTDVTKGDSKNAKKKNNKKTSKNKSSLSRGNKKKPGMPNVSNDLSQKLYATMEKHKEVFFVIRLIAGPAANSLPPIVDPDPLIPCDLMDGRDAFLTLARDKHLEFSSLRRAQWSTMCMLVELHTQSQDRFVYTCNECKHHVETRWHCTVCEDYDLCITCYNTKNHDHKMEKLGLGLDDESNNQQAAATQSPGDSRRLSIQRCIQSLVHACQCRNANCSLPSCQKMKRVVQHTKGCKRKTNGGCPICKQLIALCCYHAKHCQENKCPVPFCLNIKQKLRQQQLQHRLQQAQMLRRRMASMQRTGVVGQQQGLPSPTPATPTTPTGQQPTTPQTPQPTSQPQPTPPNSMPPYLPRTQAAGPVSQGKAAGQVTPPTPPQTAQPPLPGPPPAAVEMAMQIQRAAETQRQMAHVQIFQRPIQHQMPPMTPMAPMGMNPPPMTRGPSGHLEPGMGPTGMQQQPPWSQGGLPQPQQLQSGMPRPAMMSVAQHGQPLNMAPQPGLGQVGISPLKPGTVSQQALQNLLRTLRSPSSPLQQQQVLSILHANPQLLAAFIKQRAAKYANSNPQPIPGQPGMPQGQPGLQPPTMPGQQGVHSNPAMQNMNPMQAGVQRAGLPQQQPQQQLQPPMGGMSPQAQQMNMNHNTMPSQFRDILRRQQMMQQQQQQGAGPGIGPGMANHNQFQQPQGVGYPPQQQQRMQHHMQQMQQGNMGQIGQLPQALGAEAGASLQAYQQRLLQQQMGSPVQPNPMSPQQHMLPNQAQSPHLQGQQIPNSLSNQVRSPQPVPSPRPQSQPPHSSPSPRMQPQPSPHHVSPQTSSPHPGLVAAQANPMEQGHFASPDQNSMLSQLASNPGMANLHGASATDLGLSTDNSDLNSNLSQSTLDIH
# Procedure: The aim of the in vitro acetylation assay is to measure the enzymatic activity of the various compounds towards p300.
# First, the drug is prepared:
# Second, dilute p300 in AM1 buffer to a concentration of 40 ng/μL (final concentration in the reaction 20 ng/μL). This is accomplished by diluting 1 μL of p300 (at 0.4 μg/μL) into […] of AM1 buffer.
# Third, prepare the Master Mix. Prepare the Master Mix in low protein binding tubes (ThermoFisher Cat. No. 90410), 20 μL system.
# Incubate reactions at 30° C. for 30 minutes.
# Incubate reactions at 30° C. for 1 hour.
# Fourth, perform the western blot assay. • Add 6.7 μL of Laemmli Sample Buffer 4× (Bio-Rad Laboratories Cat. No. 161-0737) for each reaction and boil samples at 95° C. for 5 min. • Charge 10 μL for each sample in 2 Tris Glycine 4-15% gels (Bio-Rad Laboratories Cat. No. 456-1086). Running Buffer: Tris-Glycine 1× (pour in the cell up to the writing “2 gels”). • Run at 90 V for 1 hour (until the gel front reaches the green line of cell). • Semi-dry transfer with Trans-Blot® Turbo™ Blotting System from Bio-Rad Laboratories (Trans-Blot® Turbo™ RTA midi PVDF transfer kit Cat. No1704275). • Activate PVDF membrane in methanol for 5 minutes and then wet in Trans-Blot® Turbo™ transfer buffer. • Wet stacks in transfer buffer. • Transfer at 23 V 1.3 A for 7 minutes. • Blocking buffer: 5% Non-Fat milk in TBST (tween 0.1%) 1 hour at room temperature. • Cut the membranes to get Ac-His 3 at 17 kDa and p300 at 300 kDa. • Incubate with primary antibodies overnight at 4° C. • The day after, make 3 washes in TBST (Tween 0.1%) of 10 minutes. • Incubate with secondary antibody at room temperature for 1 hour. • Make 3 washes in TBST (Tween 0.1%) of 5 minutes. • Incubate membranes with ECL (SuperSignal West Dura Extended Duration Substrate from ThermoFisher) for 5 minutes at room temperature. • Acquire the image with ChemiDoc Odyssey Fc 2 minutes.
# To detect total H3 (loading control), strip the membranes with Restore™ Western Blot Stripping Buffer according to the manufacturer protocol.
# Various compounds were tested for enzymatic activity with respect to Lys 18 and Lys 27. EC50 is indicated for Activators and IC50 for inhibitors respectively.
# FIGS. 1A to 25B are graphs showing the lysine residue acetylation as a function of concentration for the compounds set forth in Table 3. The shaded area corresponds to the average values of lysine residue acetylation (continuous line) and their standard error range measured in the absence of compound and DMSO. The number of replicates is represented by “n”.
# [2] = system: hippocampal slices from WT mice; test: Long-term potentiation (LTP) in hippocampal slices perfused with oTau or oAβ; format: cell-based
# Excerpt: Synaptic dysfunction is a major hallmark of AD (Histol Histopathol, 1995. 10(2): p. 509-19; herein incorporated by reference in its entirety). An aspect of the drug screening protocol can include a measurement of the effect of compounds onto synaptic function. Amyloid-beta (Aβ) is a toxic peptide that is thought to underlie subtle amnesic changes occurring at early stages of Alzheimer's disease. It impairs both memory and its electrophysiological surrogate, long-term potentiation (LTP). LTP can be examined because it is a type of synaptic plasticity thought to underlie learning and memory. RA010115 can rescue the Aβ-induced reduction of LTP, and other compounds can also be screened to identify those that can re-establish normal LTP. The compounds can be applied for 20 min. Controls can be performed on slices in the absence of Aβ, and mice treated with compound. Tau is another peptide that is involved in cell to cell communication, and impairs both memory and LTP in animal models of AD and other tauopathies. FIG. 26 is a graph showing that RA010115 rescues oligomeric Tau (oTau)- and oligomeric Aβ (o Aβ)-induced LTP deficits. LTP was impaired in hippocampal slices from WT mice perfused with oTau (50 nM) and oAβ (200 nM), whereas there was no impairment in slices treated with RA10115 or vehicle. LTP was restored in slices perfused with RA010115 and either oTau or oAβ. The horizontal solid bar represents oAβ and oTau perfusion while the horizontal dashed bar represents RA010115. The three arrows correspond to the theta-burst stimulation. […]
compound,measurement,setting,value
COc1cccc(OC)c1C(=O)Nc1ccc(Cl)c(C(F)(F)F)c1 [RA010115],H3-Lys 27 EC50,[1]; EC50 for activators,NO ACTIVITY
same,EC50,"[1]; EC50 for activators, read-out: H3-Lys 18 EC50",137 nM
same,H3-Lys 27 IC50,[1]; IC50 for inhibitors,NO ACTIVITY
same,LTP in slices treated with compound alone,[2]; no oTau or oAβ,no impairment
same,oTau- and oAβ-induced LTP deficits,[2]; slices perfused with compound and either oTau (50 nM) or oAβ (200 nM),restored; also recorded: rescues
